Assay results: patent EP0016371A1, “Urea derivatives, process and intermediates for their preparation, medicaments containing such a urea derivative and its therapeutical use” (F. HOFFMANN-LA ROCHE & CO. Aktiengesellschaft, priority 1979, dated 1980)

How the values were obtained:
Format in all cases: in vivo
Füllinsdorfer Ratten = experiment: Conflict test in rats (single-lever Skinner box, food pellet reward combined with foot shock); conditions: Rattus norvegicus; female rats, by gavage half an hour before the one-hour main test, Wilcoxon test vs. saline pretreatment; read-out: erste signifikant anxiolytisch wirksame Dosis
Experimental: Die Testapparatur ist eine Eintasten-Skinnerbox mit Futterpillengeber.
Während 3 einstündigen Vorversuchen (an drei verschiedenen Tagen) werden hungrige weibliche Füllinsdorfer Ratten (SPF, 190-230 g) darauf trainiert, die Tast des Futterpillengebers zu drücken, um Futterpillen von je 45 mg zu erhalten (jeder Tastendruck wird belohnt); im dritten Vorversuch erreichen die Ratten eine Rate von 150-200 Tastenbetätigungen pro Stunde.
In einem vierten Vorversuch wird jede durch Tastendruck hervorgerufene Pillenbelohnung mit einem kurzen elektrischen Fuss-Schock (1,0 mA) kombiniert. Die Ratten, welche mit dieser Konflikt-Situation konfrontiert sind, betätigen anfangs noch etwa 5-10mal die Drucktaste und hören dann aus Angst gänzlich auf.
In einem fünften Vorversuch können die Ratten die Taste des Futterpillengebers wieder ohne zusätzlichen Fuss-Schock drücken, wobei wiederum eine Rate von 150-200 Tastenbetätigungen pro Stunde erreicht wird.
In einem sechsten Vorversuch wird eine Selektion der Testtiere durchgeführt. Den Testtieren werden eine halbe Stunde vor Beginn dieses Vorversuches peroral 10 mg/kg Chlordiazepoxid verabreicht; jede Pillenbelohnung wird wiederum mit einem Fuss-Schock kombiniert (Konflikt). Nur Ratten, die in diesem Vorversuch eine Rate von 20-50 Tastenbetätigungen erreichen (vgl. die 5-10 Tastenbetätigungen im vierten Vorversuch) werden als geeignete Testtiere für die Prüfung von potentiellen Anxiolytika behalten. Die Eliminationsrate in diesem Vorversuch beträgt 5%.
Im Hauptversuch werden zur Prüfung der potentiellen Anxiolytika pro Substanz und pro Dosis in der Regel 8 Ratten eingesetzt. Eine unbehandelte Kontrollgruppe ist nicht erforderlich, da jedes Tier als seine eigene Kontrolle dient. Die Testsubstanzen, welche in einem Gemisch von destilliertem Wasser (10 ml) und Tween 80 (2 Tropfen) gelöst oder suspendiert sind, werden den Tieren mit Hilfe einer Schlundsonde eine halbe Stunde vor dem einstündigen Hauptversuch verabreicht. […]

Maus [1] = experiment: Maximal electroshock test; conditions: Mus musculus, maximaler Elektroschock
Maus [2] = experiment: 3-Mercaptopropionic acid test; conditions: Mus musculus, 3-Mercaptopropionsäure-Test
Source text: (§1) Bei den oben genannten Versuchen handelt es sich um allgemein bekannte Standardmethoden zur Bestimmung von sedierender und muskelrelaxierender Wirkung.

Maus [3] = experiment: Rotating rod test; conditions: Versuch am Rotierstab, bis zu einer Dosis von 300 mg/kg
Source text: as §1

Maus [4] = experiment: Antipentetrazole test; conditions: Antipentetrazoltest, bis zu einer Dosis von 300 mg/kg
Source text: as §1

Maus [5] = experiment: Chimney test; conditions: Kamintest, bis zu einer Dosis von 300 mg/kg
Source text: as §1

SMILES | minimal effective dose (Füllinsdorfer Ratten) [mg/kg] | ED50 (Maus [1]) [mg/kg] | ED50 (Maus [2]) [mg/kg] | Aktivität (Maus [3]) | Aktivität (Maus [4]) | Aktivität (Maus [5])
CN1CC(=O)N=C1NC(=O)Nc1cccs1 [1-(1-Methyl-4-oxo-2-imidazolin-2-yl)-3-(2-thienyl)harnstoff] | 30 | – | – | – | – | –
CN1CC(=O)N=C1NC(=O)Nc1csc(Cl)c1 [1-(5-Chlor-3-thienyl)-3-(1-methyl-4-oxo-2-imidazolin-2-yl)harnstoff] | 3 | > 100 | 76 | keinerlei Aktivität | keinerlei Aktivität | keinerlei Aktivität
CN1CC(=O)N=C1NC(=O)Nc1ccsc1 [1-(1-Methyl-4-oxo-2-imidazolin-2-yl)-3-(3-thienyl)harnstoff] | 10 | – | – | – | – | –
